Experimental data as given in publication PMC7145303, “In Vitro Activities of MMV Malaria Box Compounds against the Apicomplexan Parasite Neospora caninum, the Causative Agent of Neosporosis in Animals” (Molecules, 2020).
Where two headings read alike, the source gives them in different places.

Key:
N. caninum tachyzoites [1] = assay: N. caninum β-galactosidase reporter strain proliferation in HFF (screen and inhibition curves); assay type: cell-based; settings: Neospora caninum
Method: Figure 2 Dose response curves of 9 Medicines for Malaria Venture (MMV) Malaria Box compounds. […] The inhibition of N. caninum tachyzoite proliferation was determined using a β-galactosidase reporter strain in the presence of a concentration series of compounds added prior to the infection of confluent human foreskin fibroblasts by tachyzoites. The mean values ± SE are indicated for quadruplicates.
For an initial screen, 390 compounds (1 µM compound/well) were added to human foreskin fibroblasts (HFFs) previously seeded in 96-well-plates. DMSO (0.25%) was included as a solvent control. HFF monolayers were either left uninfected or were infected with 10^3 N. caninum beta-galactosidase expressing tachyzoites per well. After 3 days, N. caninum proliferation was assayed by measuring beta-galactosidase activity, and HFF viability was monitored using the Alamar Blue assay. This screen was repeated once for confirmation, yielding identical results. Forty compounds showing values lower than the cut-off of the beta-galactosidase assay were regarded as effective against N. caninum, compounds yielding values lower than the cutoff of the Alamar Blue assay were regarded as cytotoxic. Effective compounds without cytotoxicity were regarded as potential hits and were retained for further experiments. The IC50 values (inhibitory concentration of 50% of the solvent control value) of selected compounds were determined in quadruplicate wells in the same assay set-up and were calculated as described.
(§1) To define the cutoff values in the initial screening, compounds were regarded as effective against N. caninum when the beta-galactosidase values were lower than the mean values of the controls (8 replicates) minus three times the standard deviation of these control values. Furthermore, compounds were regarded as cytotoxic when the Alamar Blue values were lower than the mean values of the untreated controls (8 replicates) minus three times the standard deviation of these control values. The IC50 values were calculated after the logit-log transformation of the relative growth (RG; control = 1) according to the formula ln (RG/(1 − RG)) = a × ln(drug concentration) + b, and the subsequent regression analysis was carried out using the corresponding software tool contained in the Excel software package (Microsoft, Seattle, WA, USA).

N. caninum tachyzoites [2] = assay type: cell-based, Neospora caninum; settings: 500 nM, TEM at 6, 12, 24, 48 h of treatment
Method: The transmission electron microscopy of N. caninum-infected HFF monolayers was done as previously described. Briefly, HFFs were grown to confluency in 6-well tissue culture devices and were infected with freshly isolated N. caninum tachyzoites during 2 h at 37 °C/5% CO2. After one wash in PBS, treatments with the compounds (1), (2), and (5) were initiated, all at 500 nM. The controls were treated with the corresponding amount of DMSO. After 6, 12, 24, or 48 h, samples were rinsed in PBS, and were fixed in 100 mM of cacodylate buffer pH7.3 containing 2.5% glutaraldehyde for 2 h at room temperature. The cells were scraped and centrifuged at 1000 g for 10 min at 4 °C and, and the resulting pellet was further fixed in the same solution at 4 °C overnight, followed by post-fixation in 2% OsO4 in cacodylate buffer for 4 h at 4 °C. Subsequently, the specimens were washed and pre-stained in Uranyless^TM (Electron Microscopy Sciences, Hatfield, PA, USA), followed by dehydration in a graded series of ethanol (30%, 50%, 70%, 90%, and 100%). They were finally embedded in Epon 820 epoxy resin over a period of 2 days with 3 resin changes. The resin was polymerized at 65 °C for 24 h, and 80-nm sections were cut on a Reichert and Jung ultramicrotome. The sections were loaded onto 300-mesh copper grids (Plano GmbH, Marburg, Germany) and were stained with Uranyless^TM and lead citrate as described.

[3] = source of values not stated; cited from earlier work
[4] = design: AUC0-inf / AUC0-last: unit not given here; settings: mice, p.o., data provided by MMV, cited from earlier work; for MRT0-last / Tlast / Tmax / Cmax / AUC0-last: 114 µmol/kg (1),(5), 119 µmol/kg (2); for Cmax: plasma
[5] = system: Plasmodium falciparum blood forms; design: method as in PMID 31665424; settings: cited from earlier work
Cryptosporidium parvum = system: Cryptosporidium parvum; design: method as in PMID 24566188; settings: cited from earlier work
cysteine proteinases = system: cysteine proteinases; design: method as in PMID 27467575; settings: functional assays; cited from earlier work
[6] = system: human foreskin fibroblasts (HFFs); assay: HFF viability, Alamar Blue assay; assay type: cell-based; settings: 1 µM compound/well, uninfected confluent HFF, 3 days
Method: For an initial screen, 390 compounds (1 µM compound/well) were added to human foreskin fibroblasts (HFFs) previously seeded in 96-well-plates. DMSO (0.25%) was included as a solvent control. HFF monolayers were either left uninfected or were infected with 10^3 N. caninum beta-galactosidase expressing tachyzoites per well. After 3 days, N. caninum proliferation was assayed by measuring beta-galactosidase activity, and HFF viability was monitored using the Alamar Blue assay. This screen was repeated once for confirmation, yielding identical results. […]
as §1, with “Furthermore, compounds were regarded as cytotoxic when the Alamar Blue values were lower than the mean values of the untreated controls (8 replicates) minus three times the standard deviation of these control values.” left out

Theileria annulata = settings: cited from earlier work; for Therapeutic index: T. annulata vs macrophages
Brugia malayi = system: Brugia malayi; design: method as in PMID 27467575; settings: cited from earlier work
[7] = 72 h, 3 days, concentration range 0–250 nM, with 95% confidence intervals

| Structure (SMILES) | IC50 (N. caninum tachyzoites [1]; [7]) | Effects on the ultrastructure of N. caninum tachyzoites (N. caninum tachyzoites [2]) | LogP [3] | MRT0-last [4] | Tlast [4] | Tmax [4] | Cmax [4] | Rapidity of action against P. falciparum blood forms [5] | AUC0-last [4] | Effectiveness against C. parvum (Cryptosporidium parvum) | Therapeutic index (Theileria annulata) | Effectiveness against T. annulata (Theileria annulata) | further results |
| --- | --- | --- | --- | --- | --- | --- | --- | --- | --- | --- | --- | --- | --- |
| O=C(Nc1cccc(C(F)(F)F)c1)c1cc(Cl)ccc1O [Compound (2)] | 71 ± 30 nM | after a treatment duration of 12 h (Figure 6C), the loss of the tachyzoite mitochondrial matrix was evident | 6.06 | 5.24 h | 9.00 h | 6.33 h | 62 nM | very rapidly | – | – | – | – | Effects on the ultrastructure of N. caninum tachyzoites (N. caninum tachyzoites [2]; listed as MMV665807): specifically induced distinct alterations in the tachyzoites |
| O=C1c2ccc3c4c(ccc(c24)C(=O)N1CCCCO)C(=O)N(CCCCO)C3=O [Compound (5)] | 150 ± 30 nM | ongoing proliferation despite clear ultrastructural alterations | −1.30 | 1.55 h | 7.00 h | 0.444 h | 308 nM | – | 0.475 | effective against C. parvum with an IC50 in same range | – | – | IC50 (N. caninum tachyzoites [1]): < 200 nM; Effects on the ultrastructure of N. caninum tachyzoites (N. caninum tachyzoites [2]; listed as MMV009085): specifically induced distinct alterations in the tachyzoites; AUC0-inf ([4]; 114 µmol/kg): 0.486; MRT0-inf ([4]; 114 µmol/kg): 1.80 h; T1/2 ([4]; 114 µmol/kg): 1.48 h |
| CCCOCc1cc(CN2CCN(c3cccc(Cl)c3)CC2)c(O)c2ncccc12 [Compound (3)] | 99 ± 10 nM | – | 4.71 | – | – | – | – | very slowly | – | – | – | – | Inhibition of cysteine proteinases (cysteine proteinases): inhibits cysteine proteinases |
| CN(C)c1ccc(C(O)(c2ccc(N(C)C)cc2)c2ccc(N(C)C)cc2)cc1 [Compound (1)] | 25 ± 5 nM | cytoplasmic vacuoles that were already detectable after 6 h of treatment | 4.76 | 4.80 h | 9.00 h | 5.00 h | 1090 nM | more slowly than artesunate, but faster than atovaquone | 27.2 | – | 2.5 | most effective against T. annulata | Cytotoxicity against HFFs [6]: did not affect confluent HFFs; Effects on the ultrastructure of N. caninum tachyzoites (N. caninum tachyzoites [2]; listed as MMV665941): specifically induced distinct alterations in the tachyzoites; IC50 (Cryptosporidium parvum; read-out: IC50 against Cryptosporidium parvum): ~800 nM |
| COc1ccc(C(=O)NC(c2ccc(Cl)cc2Cl)c2cc(Cl)c3cccnc3c2O)cc1 (stereo not drawn) [Compound (4)] | 79 ± 10 nM | – | 6.15 | – | – | – | – | relatively slowly | – | effective against C. parvum | around 18 | most effective against T. annulata | Effectiveness against the helminth Brugia malayi (Brugia malayi): effective |
